How the values were obtained:
Assay type in all cases: in vivo
Settings in all cases: 14 days after application
[1] = test system: velvetleaf (Abutilon theophrasti, ABUTH); assay: Pre-emerge greenhouse herbicide activity screening, phytotoxicity rating
In short: (§1)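 Compounds in acetone track-sprayed at 15–1000 g ai/ha, 187 l/ha, onto sandy loam pots sown one day before (pre-emerge) or on 2-3 leaf plants (post-emerge, plus 0.25% v/v non-ionic surfactant). Phytotoxicity rated at 14 days, 0 (no damage) to 100 (all plants dead).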

[2] = test system: sicklepod (Cassia obtusifolia, CASOB); assay: as above
In short: as §1

[3] = test system: green foxtail (Setaria viridis, SETVI); assay: as above
In short: as §1

[4] = test system: ivyleaf morningglory (Ipomoea hederacea, IPOHE); assay: as above
In short: as §1

[5] = test system: common ragweed (Ambrosia artemisiifolia L., AMBEL); assay: as above
In short: as §1

[6] = test system: redroot pigweed (Amaranthus retroflexus, AMARE); assay: as above
In short: as §1

[7] = test system: lambsquarters (Chenopodium album, CHEAL); assay: as above
In short: as §1

[8] = test system: barnyardgrass (Echinochloa crus-galli, ECHCG); assay: as above
In short: as §1

[9] = test system: large crabgrass (Digitaria sanguinalis, DIGSA); assay: as above
In short: as §1

[10] = test system: johnsongrass (Sorghum halepense, SORHA); assay: as above
In short: as §1

[11] = test system: velvetleaf (Abutilon theophrasti, ABUTH); assay: Post-emerge greenhouse herbicide activity screening, phytotoxicity rating
In short: as §1

[12] = test system: sicklepod (Cassia obtusifolia, CASOB); assay: as above
In short: as §1

[13] = test system: green foxtail (Setaria viridis, SETVI); assay: as above
In short: as §1

[14] = test system: ivyleaf morningglory (Ipomoea hederacea, IPOHE); assay: as above
In short: as §1

[15] = test system: common ragweed (Ambrosia artemisiifolia L., AMBEL); assay: as above
In short: as §1

[16] = test system: redroot pigweed (Amaranthus retroflexus, AMARE); assay: as above
In short: as §1

[17] = test system: lambsquarters (Chenopodium album, CHEAL); assay: as above
In short: as §1

[18] = test system: barnyardgrass (Echinochloa crus-galli, ECHCG); assay: as above
In short: as §1

[19] = test system: large crabgrass (Digitaria sanguinalis, DIGSA); assay: as above
In short: as §1

[20] = test system: johnsongrass (Sorghum halepense, SORHA); assay: as above
In short: as §1

[21] = test system: upland rice (Oryza sp., var.Tebonnet, RICE); assay: Post-emerge greenhouse screening, crop safety (phytotoxicity rating)
In short: as §1

[22] = test system: soybean (Glycine max L., var. Pella 86, SOY); assay: as above
In short: as §1

[23] = test system: field corn (Zea mays L., var. Dekalb 535, CORN); assay: Post-emerge greenhouse screening, crop safety / corn selectivity (phytotoxicity rating)
In short: as §1

[24] = test system: upland rice (Oryza sp., var.Tebonnet, RICE); assay: Pre-emerge greenhouse screening, crop safety (phytotoxicity rating)
In short: as §1

[25] = test system: soybean (Glycine max L., var. Pella 86, SOY); assay: as above
In short: as §1

[26] = test system: field corn (Zea mays L., var. Dekalb 535, CORN); assay: as above
In short: as §1

Cn1c(=S)n(C)c(=O)n(-c2cc(Oc3ccccc3N)c(Cl)cc2F)c1=O [Compound 2-18]
50: AMBEL phytotoxicity rating (0-100 scale) ([5]; 125 g ai/ha) | SETVI phytotoxicity rating (0-100 scale) ([13]; 125 g ai/ha) | SETVI phytotoxicity rating (0-100 scale) ([13]; 250 g ai/ha)
55: ABUTH phytotoxicity rating (0-100 scale) ([1]; 125 g ai/ha) | AMBEL phytotoxicity rating (0-100 scale) ([5]; 250 g ai/ha)
99: AMARE phytotoxicity rating (0-100 scale) ([6]; 125 g ai/ha)
35: CASOB phytotoxicity rating (0-100 scale) ([2]; 250 g ai/ha) | ECHCG phytotoxicity rating (0-100 scale) ([8]; 125 g ai/ha) | SORHA phytotoxicity rating (0-100 scale) ([10]; 125 g ai/ha) | ECHCG phytotoxicity rating (0-100 scale) ([18]; 250 g ai/ha)
5: CORN crop damage, phytotoxicity rating (0-100 scale) ([26]; 250 g ai/ha)
75: DIGSA phytotoxicity rating (0-100 scale) ([9]; 125 g ai/ha) | SORHA phytotoxicity rating (0-100 scale) ([10]; 250 g ai/ha)
95: SETVI phytotoxicity rating (0-100 scale) ([3]; 250 g ai/ha)
40: ABUTH phytotoxicity rating (0-100 scale) ([11]; 250 g ai/ha)
20: CASOB phytotoxicity rating (0-100 scale) ([2]; 125 g ai/ha)
70: CHEAL phytotoxicity rating (0-100 scale) ([17]; 125 g ai/ha) | CHEAL phytotoxicity rating (0-100 scale) ([17]; 250 g ai/ha)
60: ABUTH phytotoxicity rating (0-100 scale) ([1]; 250 g ai/ha) | SETVI phytotoxicity rating (0-100 scale) ([3]; 125 g ai/ha) | ECHCG phytotoxicity rating (0-100 scale) ([8]; 250 g ai/ha)
0: IPOHE phytotoxicity rating (0-100 scale) ([4]; 125 g ai/ha) | ABUTH phytotoxicity rating (0-100 scale) ([11]; 125 g ai/ha) | CASOB phytotoxicity rating (0-100 scale) ([12]; 125 g ai/ha) | CASOB phytotoxicity rating (0-100 scale) ([12]; 250 g ai/ha) | IPOHE phytotoxicity rating (0-100 scale) ([14]; 125 g ai/ha) | IPOHE phytotoxicity rating (0-100 scale) ([14]; 250 g ai/ha) | AMBEL phytotoxicity rating (0-100 scale) ([15]; 125 g ai/ha) | AMBEL phytotoxicity rating (0-100 scale) ([15]; 250 g ai/ha) | ECHCG phytotoxicity rating (0-100 scale) ([18]; 125 g ai/ha) | DIGSA phytotoxicity rating (0-100 scale) ([19]; 125 g ai/ha) | DIGSA phytotoxicity rating (0-100 scale) ([19]; 250 g ai/ha) | SORHA phytotoxicity rating (0-100 scale) ([20]; 125 g ai/ha) | SORHA phytotoxicity rating (0-100 scale) ([20]; 250 g ai/ha) | RICE crop damage, phytotoxicity rating (0-100 scale) ([21]; 125 g ai/ha) | RICE crop damage, phytotoxicity rating (0-100 scale) ([21]; 250 g ai/ha) | SOY crop damage, phytotoxicity rating (0-100 scale) ([22]; 125 g ai/ha) | SOY crop damage, phytotoxicity rating (0-100 scale) ([22]; 250 g ai/ha) | CORN crop damage, phytotoxicity rating (0-100 scale) ([23]; 125 g ai/ha) | CORN crop damage, phytotoxicity rating (0-100 scale) ([23]; 250 g ai/ha) | RICE crop damage, phytotoxicity rating (0-100 scale) ([24]; 125 g ai/ha) | RICE crop damage, phytotoxicity rating (0-100 scale) ([24]; 250 g ai/ha) | SOY crop damage, phytotoxicity rating (0-100 scale) ([25]; 125 g ai/ha) | SOY crop damage, phytotoxicity rating (0-100 scale) ([25]; 250 g ai/ha) | CORN crop damage, phytotoxicity rating (0-100 scale) ([26]; 125 g ai/ha)
80: DIGSA phytotoxicity rating (0-100 scale) ([9]; 250 g ai/ha) | AMARE phytotoxicity rating (0-100 scale) ([16]; 125 g ai/ha) | AMARE phytotoxicity rating (0-100 scale) ([16]; 250 g ai/ha)
100: AMARE phytotoxicity rating (0-100 scale) ([6]; 250 g ai/ha) | CHEAL phytotoxicity rating (0-100 scale) ([7]; 125 g ai/ha) | CHEAL phytotoxicity rating (0-100 scale) ([7]; 250 g ai/ha)
10: IPOHE phytotoxicity rating (0-100 scale) ([4]; 250 g ai/ha)

Cn1nc(-c2cc(Oc3ncccn3)c(Cl)cc2F)c(=O)n(C)c1=S [Compound 4-1, 6-[4-Chloro-2-fluoro-5-(2-pyrimidinyloxy)phenyl]-3,4-dihydro-2,4-dimethyl-3-thioxo-1,2,4-triazin-5(2H)-one]
85: AMBEL phytotoxicity rating (0-100 scale) ([5]; 125 g ai/ha) | AMBEL phytotoxicity rating (0-100 scale) ([5]; 250 g ai/ha)
55: CASOB phytotoxicity rating (0-100 scale) ([12]; 125 g ai/ha) | CASOB phytotoxicity rating (0-100 scale) ([12]; 250 g ai/ha) | ECHCG phytotoxicity rating (0-100 scale) ([18]; 125 g ai/ha)
50: CASOB phytotoxicity rating (0-100 scale) ([2]; 125 g ai/ha) | SETVI phytotoxicity rating (0-100 scale) ([13]; 125 g ai/ha) | DIGSA phytotoxicity rating (0-100 scale) ([19]; 125 g ai/ha) | SORHA phytotoxicity rating (0-100 scale) ([20]; 125 g ai/ha) | SOY crop damage, phytotoxicity rating (0-100 scale) ([22]; 125 g ai/ha) | SOY crop damage, phytotoxicity rating (0-100 scale) ([22]; 250 g ai/ha) | RICE crop damage, phytotoxicity rating (0-100 scale) ([24]; 125 g ai/ha)
99: ECHCG phytotoxicity rating (0-100 scale) ([8]; 250 g ai/ha) | DIGSA phytotoxicity rating (0-100 scale) ([9]; 125 g ai/ha) | SORHA phytotoxicity rating (0-100 scale) ([10]; 125 g ai/ha) | ABUTH phytotoxicity rating (0-100 scale) ([11]; 125 g ai/ha) | CHEAL phytotoxicity rating (0-100 scale) ([17]; 125 g ai/ha)
10: CORN crop damage, phytotoxicity rating (0-100 scale) ([26]; 250 g ai/ha)
100: SETVI phytotoxicity rating (0-100 scale) ([3]; 125 g ai/ha) | SETVI phytotoxicity rating (0-100 scale) ([3]; 250 g ai/ha) | IPOHE phytotoxicity rating (0-100 scale) ([4]; 250 g ai/ha) | AMARE phytotoxicity rating (0-100 scale) ([6]; 125 g ai/ha) | AMARE phytotoxicity rating (0-100 scale) ([6]; 250 g ai/ha) | CHEAL phytotoxicity rating (0-100 scale) ([7]; 125 g ai/ha) | CHEAL phytotoxicity rating (0-100 scale) ([7]; 250 g ai/ha) | DIGSA phytotoxicity rating (0-100 scale) ([9]; 250 g ai/ha) | SORHA phytotoxicity rating (0-100 scale) ([10]; 250 g ai/ha) | ABUTH phytotoxicity rating (0-100 scale) ([11]; 250 g ai/ha) | AMARE phytotoxicity rating (0-100 scale) ([16]; 125 g ai/ha) | AMARE phytotoxicity rating (0-100 scale) ([16]; 250 g ai/ha) | CHEAL phytotoxicity rating (0-100 scale) ([17]; 250 g ai/ha)
5: CORN crop damage, phytotoxicity rating (0-100 scale) ([23]; 125 g ai/ha)
0: RICE crop damage, phytotoxicity rating (0-100 scale) ([21]; 125 g ai/ha) | SOY crop damage, phytotoxicity rating (0-100 scale) ([25]; 125 g ai/ha) | SOY crop damage, phytotoxicity rating (0-100 scale) ([25]; 250 g ai/ha) | CORN crop damage, phytotoxicity rating (0-100 scale) ([26]; 125 g ai/ha)
60: CASOB phytotoxicity rating (0-100 scale) ([2]; 250 g ai/ha) | SETVI phytotoxicity rating (0-100 scale) ([13]; 250 g ai/ha) | AMBEL phytotoxicity rating (0-100 scale) ([15]; 250 g ai/ha) | DIGSA phytotoxicity rating (0-100 scale) ([19]; 250 g ai/ha) | RICE crop damage, phytotoxicity rating (0-100 scale) ([24]; 250 g ai/ha)
65: ABUTH phytotoxicity rating (0-100 scale) ([1]; 125 g ai/ha)
90: ECHCG phytotoxicity rating (0-100 scale) ([8]; 125 g ai/ha)
95: ABUTH phytotoxicity rating (0-100 scale) ([1]; 250 g ai/ha)
70: IPOHE phytotoxicity rating (0-100 scale) ([14]; 125 g ai/ha) | IPOHE phytotoxicity rating (0-100 scale) ([14]; 250 g ai/ha)
15: RICE crop damage, phytotoxicity rating (0-100 scale) ([21]; 250 g ai/ha) | CORN crop damage, phytotoxicity rating (0-100 scale) ([23]; 250 g ai/ha)
75: IPOHE phytotoxicity rating (0-100 scale) ([4]; 125 g ai/ha) | ECHCG phytotoxicity rating (0-100 scale) ([18]; 250 g ai/ha) | SORHA phytotoxicity rating (0-100 scale) ([20]; 250 g ai/ha)
30: AMBEL phytotoxicity rating (0-100 scale) ([15]; 125 g ai/ha)
